According to ChEMBL document CHEMBL1136134, “Novel coumarin derivatives of heterocyclic compounds as lipid-lowering agents” (2003):
Calls of active or inactive are those of the source. No cut-off for these calls is given here.

System: Mus musculus
Test: Plasma triglyceride lowering activity in swiss albino mice was determined after 3 mg/kg compound administered for 6 days; Not effective
Type: functional, organism-based
Design: dose 3 mg/kg

**Q.** Which Activity does the source give for CCOc1cc2ccc(OCCn3ncc4cc(C)ccc4c3=O)cc2oc1=O here?
**A.** Its Activity is “inactive”.

**Q.** CCOc1cc2ccc(OCCn3c(CC)nc4ccccc4c3=O)cc2oc1=O was tested. Which Activity did it give?
**A.** Its Activity is “inactive”.

**Q.** CCOc1cc2ccc(OCCN(C)c3nc4ccccc4o3)cc2oc1=O was tested. Which Activity did it give?
**A.** Its Activity is “inactive”.

**Q.** With CCOc1cc2ccc(OCCN3c4ccccc4Oc4ccccc43)cc2oc1=O as the compound, how does the Activity read?
**A.** The Activity was “inactive”.

**Q.** How did the Activity turn out when CC(=O)Nc1cc2ccc(OCCN(C)c3nc4ccccc4o3)cc2oc1=O was run?
**A.** The Activity was “inactive”.

**Q.** With O=C(O)c1cc2ccc(OCCn3ncc4ccccc4c3=O)cc2oc1=O as the compound, how does the Activity read?
**A.** The Activity was “inactive”.

System: Mus musculus
Test: Plasma triglyceride lowering activity in swiss albino mice was determined after 30 mg/kg compound administered for 6 days
Type: functional

**Q.** Which Activity does the source give for CC(C)OC(=O)C(C)(C)Oc1ccc(C(=O)c2ccc(Cl)cc2)cc1 [FENOFIBRATE] here?
**A.** Its Activity is 36%.

System: Mus musculus
Test: Plasma triglyceride lowering activity in swiss albino mice was determined after 3 mg/kg compound administered for 6 days
Type: functional

**Q.** CCOc1cc2ccc(OC(C)(C)C(=O)O)cc2oc1=O was tested. Which Activity did it give?
**A.** The Activity was 16%.

**Q.** CCOC(Cc1ccc(OCCN2c3ccccc3Oc3ccccc32)cc1)C(=O)O (configuration not stated) was tested. Which Activity did it give?
**A.** Its Activity is 47%.

**Q.** CCOc1cc2ccc(OCCn3ccc4ccccc43)cc2oc1=O was tested. Which Activity did it give?
**A.** Its Activity is 27%.

**Q.** How did the Activity turn out when CC(=O)Nc1cc2ccc(OCCc3nc(-c4ccccc4)oc3C)cc2oc1=O was run?
**A.** Its Activity is 2%.

**Q.** CCOC(=O)c1cc2ccc(OCCc3nc(-c4ccccc4)oc3C)cc2oc1=O was tested. Which Activity did it give?
**A.** The Activity was 2%.

**Q.** How did the Activity turn out when Cc1oc(-c2ccccc2)nc1CCOc1ccc2cc(C(=O)O)c(=O)oc2c1 was run?
**A.** Its Activity is 32%.

**Q.** With CCOc1cc2ccc(OCc3ccccc3F)cc2oc1=O as the compound, how does the Activity read?
**A.** Its Activity is 25%.

**Q.** Which Activity does the source give for CCOc1cc2ccc(OCCn3c(CC)nc(C)cc3=O)cc2oc1=O here?
**A.** The Activity was 26%.

**Q.** With CCOc1cc2ccc(OCCn3ncc4ccccc4c3=O)cc2oc1=O as the compound, how does the Activity read?
**A.** Its Activity is 45%.

**Q.** Which Activity does the source give for CCOc1cc2ccc(OCCc3nc(-c4ccccc4)oc3C)cc2oc1=O here?
**A.** Its Activity is 31%.
